Experimental data taken from ChEMBL document CHEMBL5230147, “Click, release, and fluoresce: In-vivo generation of CO with concomitant synthesis of a fluorescent reporter” (Bioorg Med Chem, 2021).

Experiments:
[1] = Half life in C57BL/6 mouse at 100 mg/kg, ip at pH 7.4 measured after 24 hrs; format: ADME, organism-based; details: in vivo
[2] = Half life in rat at 0.1 mg/kg, IG at pH 1.2 measured for 24 hrs; format: ADME, organism-based; details: in vivo, po
[3] = Half life in rat at 0.1 mg/kg, IG at pH 7.4 measured for 24 hrs; format: ADME, organism-based; details: in vivo, po
[4] = Half life in mouse at 15 mg/kg, ip at pH 7.4 measured at 24 to 72 hrs; format: ADME, organism-based; details: in vivo, time 24-72 hrs
Mus musculus = assay: Anti-colitis activity against TNBS-induced C57BL/6 mouse model assessed as survival rate at 15 mg/kg, ip; format: functional

For `C#CCN(C)C(=O)C1=C2C(=C(c3ccccc3)C1=O)c1cccc3cccc2c13`, the half-life [1] was 1.9 min.
`C#CC(C)(C)NC(=O)C1=C2C(=C(c3ccccc3)C1=O)c1cccc3cccc2c13` showed a half-life [2] of 17.1 min and a half-life [3] of 24.1 min.
Molecule `C#CCCN(C(=O)C1=C2C(=C(c3ccccc3)C1=O)c1cccc3cccc2c13)C(C)C` has a half-life [4] of 72 min and an Activity (Mus musculus) of 75%.
